In PubChem BioAssay AID504703 (Southern Research Specialized Biocontainment Screening …, 2011):
Activity calls are given as the source filed them. No rule for the calls is given here.

Tested on: M. tuberculosis H37Rv growth inhibition with meropenem
Test: H37Rv growth inhibition with and without meropenem, dose response, set 2 (AID 504703);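 also: growth ran 7 days at 37 °C then overnight with Alamar Blue before reading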
[1] = M. tuberculosis H37Rv growth inhibition, measured here: IC50 without meropenem
[2] = M. tuberculosis H37Rv growth inhibition, measured here: IC90 without meropenem
[3] = measured here: IC90 with meropenem

Structure (SMILES) | IC50 | IC50 [1] [µM] | IC90 [2] [µM] | IC90 [3] [µM]
CCOc1ccc2c(c1)cc(C)n2-c1ccccc1 | 11.5 µM (inactive) | > 25 | > 25 | > 25
Cc1ccccc1OCC(=O)Nc1ccccc1N1CCCCC1 | – | > 25 | > 25 | > 25
CCOc1ccc2c(c1)c(C(C)=O)c(C)n2-c1cccc(Cl)c1 | 10.5 µM (inactive) | > 25 | > 25 | > 25
COc1ccc2nc(NC(=O)COc3c(C)cc(C)cc3C)sc2c1 | – | > 25 | > 25 | –
CCOc1ccc2c(c1)c(C(C)=O)c(C)n2-c1ccccc1Cl | 13.6 µM (inactive) | > 25 | > 25 | > 25
Cc1ccc(OCC(=O)Nc2nc3ccc(F)cc3s2)cc1 | – | > 25 | > 25 | –
COc1ccccc1C(=O)N/C(N)=N/c1nc2ccccc2o1 | – | > 25 | > 25 | –
Cc1cc2cc(Cl)ccc2[nH]1 | – | > 25 | > 25 | –
CCOC(=O)c1c(C)[nH]c2ccccc12 | – | > 25 | > 25 | –
CCOc1ccc2nc(NC(=O)c3cnccn3)sc2c1 | – | > 25 | > 25 | –
CCOc1ccc(NC(=O)COc2ccc(C)cc2C)cc1 | – | > 25 | > 25 | –
CCOc1ccc2c(ccn2-c2ccccc2)c1 | – | > 25 | > 25 | –
